# According to patent US9862748B2, “Peptide compounds and methods of production and use thereof” (priority 2012, dated 2018):
# Columns and labels:
# corneas = experiment: Corneal cytokines after intrastromal injection (MILLIPLEX MAP mouse cytokine assay); assay type: in vivo; details: intrastromal 0.5 μl, 10^−4, 10^−5, 10^−6 M; 24 and 48 hours
# Protocol: Corneas were injected intrastromally with 0.5 μl of peptide 95-122 at a final concentration of 10^−4 M, 10^−5 M, and 10^−6 M and vehicle (saline) control. Corneas were collected and flash frozen at 24 hours and 48 hours. Corneal lysates were analyzed for cytokines using the MILLIPLEX® MAP mouse cytokine assay for IL-7 (A), IL-15 (B), IFN-γ (C), MIP1-α (D) (EMD Millipore Corp., Billerica, Mass.). The means of independent experimental values are shown ±SEM. ***P<0.001, **P<0.01, *P<0.05 by unpaired t-test as compared to vehicle treated controls. […] Corneas were injected intrastromally with 0.5 μl of peptide 95-122 at a final concentration of 10^−4 M, 10^−5 M, and 10^−6 M and vehicle (saline) control. Corneas were collected and flash frozen at 24 hours and 48 hours. Corneal lysates were analyzed for cytokines using the MILLIPLEX® MAP mouse cytokine assay for MIP1-β (EMD Millipore Corp., Billerica, Mass.). **P<0.01, *P<0.05 by unpaired t-test as compared to vehicle treated controls. […] Corneas were injected intrastromally with 0.5 μl of peptide 95-122 at a final concentration of 10^−4 M, 10^−5 M, and 10^−6 M and vehicle (saline) control. Corneas were collected and flash frozen at 24 hours and 48 hours. Corneal lysates were analyzed for cytokines using the MILLIPLEX® MAP mouse cytokine assay for KC (A), IL-1β (B), and GM-CSF (C) (EMD Millipore Corp., Billerica, Mass.). **P<0.01, *P<0.05 by unpaired t-test as compared to vehicle treated controls.
# [1] = test system: mouse cornea (corneal epithelial abrasion); experiment: In vivo model of corneal wound healing; details: treated at 0 and 16 hours; 95-122 10^−5 M; 120-146WH 10^−8 M or 10^−6 M; HB-EGF 250 ng/ml
# Protocol: The in vivo model of wound healing was carried out using a disposable biopsy punch (2 mm, Miltex, York, Pa.) to demarcate the mouse cornea and a 0.5 mm burr using the AlgerBrush II (The Alger Company, Inc., Lago Vista, Tex.) to remove the corneal epithelium.
# Mice were anesthetized using ketamine (100 mg/kg; Bionichepharma, LLC., St. Lake Forrest, Ill.) and xylazine ([…]; Rompun; Bayer Corp., Shawnee Mission, Kans.), and the right cornea was wounded as follows. A disposable biopsy punch (2 mm, Miltex, York, Pa.) was used to demarcate the mouse cornea. The corneal epithelium was carefully removed within the 2 mm demarcated area with a 0.5 mm burr using the AlgerBrush II (The Alger Company, Inc., Lago Vista, Tex.). The corneal abrasions were treated at 0 and 16 hours with HB-EGF (250 ng/ml), rCAP37 (250 ng/ml), or vehicle control (0.9% sodium chloride, pH 5.5, Baxter, Deerfield, Ill.). Corneal abrasions were visualized using sterile fluorescein sodium ophthalmic strips USP (FLUORETS®, Chauvin Laboratory, Aubenas, France) dampened with sterile PBS. Images were taken at 0, 16, 24, and 48 hours immediately following fluorescein staining using a surgical microscope equipped with a camera (Carl Zeiss OPMI VISU 140, Carl Zeiss Surgical, Inc., Oberkochen, Germany). The areas of the open wound were quantitated using ImageJ software (US National Institutes of Health), and the results were reported as the percentage of wound closure.
# Whole mouse eyes were collected for histology at 0, 6, 16, 24, and 48 hours post wounding and were immediately placed in Prefer fixative (Anatech LTD., Battle Creek, Mich.) for 20 minutes before being transferred to 70% ethanol. Tissues were paraffin-embedded and cut at a thickness of 5 μm, mounted on SUPERFROSTPLUS® slides (Statlab Medical Products, Lewisville, Tex.), and subsequently deparaffinized, rehydrated, and washed in deionized water. Sections were stained with hematoxylin (Leica Microsystems, Buffalo Grove, Ill.) and rinsed twice in deionized water before being washed in Blue Buffer (Leica Microsystems). The sections were finally washed in deionized water and 95% ethanol prior to being counterstained with eosin (Leica Microsystems). Sections were dehydrated in ethanol and cleared in xylene.
# [2] = test system: Pseudomonas aeruginosa ATCC® 27853™; assay type: cell-based; details: 3.12-25 μM; 180 minutes
# Method in brief: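 P. aeruginosa ATCC 27853 at 1×10^6 CFU/ml incubated 180 min with peptides (25–3.12 μM, pH 5.5 or 7.2; or 150–37.5 μg/ml, pH 5.5) versus tryptone saline; gentamicin 4 μg/ml control. Surviving CFU counted after overnight plating, expressed as log reduction in CFU/ml.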
sequence,measurement,setting,value
LDREANLTSSVTILPLPLQNATVEAGTR (listed as Homo sapiens) [Peptide 95-122],GM-CSF in corneal lysates,corneas,significantly increases
same,IFN-γ in corneal lysates,corneas,significantly increases
same,IL-1β in corneal lysates,corneas,significantly increases
same,IL-7 in corneal lysates,corneas,significantly increases
same,IL-15 in corneal lysates,corneas,significantly increases
same,KC in corneal lysates,corneas,significantly increases
same,MIP1-0 (MIP1-β) in corneal lysates,corneas,significantly increases
same,MIP1-α in corneal lysates,corneas,significantly increases
same,corneal wound healing versus vehicle,[1],promotes corneal wound healing
same,"activity against Pseudomonas aeruginosa at either pH (5.5, 7.2)",[2],not active
